The conditions of data set [1]: at 30° C.; cited from earlier work.
Data set [2] is described as follows: Confirmation of solubility of CF4 for phosphonium ionic liquid (headspace CF4 by GC-MS). It is filed as physicochemical. The settings on record: 5 ml ionic liquid in 60 ml serum bottle, 200 ppm CF4 in upper empty space, 24 hours shaking; control distilled water. The procedure: 5 ml of a phosphonium ionic liquid was put in a 60 ml glass serum bottle, and CF4 was supplied to the upper empty space at a concentration of 200 ppm based on the volume of the empty space. After air-tightening by closing a lid, the bottle was incubated for 24 hours under shaking. Then, the air in the upper empty space was collected, and a concentration of CF4 was measured using gas chromatography mass-spectrum (GC-MS). Distilled water of the same volume was used as a control group.
The CF4 removal rates in Tables 1 and 2 were calculated from the following Mathematical Equation 1:
CF4 removal rate=[(initial CF4 content−CF4 content after reaction)/initial CF4 content]×100 <Mathematical Equation 1>

As to `FC(F)(F)F` [CF4], the “solubility of CF4 in water” value in data set [1] is 17.1 µg/mL.
Turning to “triethyl octyl phosphonium bis(trifluoromethylsulfonyl)imide [[P2228]^+ [NTf2]^−]”, the “CF4 reduction rate (%)” value in data set [2] is 13.9%.
The same measure, in the same setting: the result for “trihexyl tetradecyl phosphonium bis(trifluoromethylsulfonyl)imide [[P66614]^+ [NTf2]^−]” reads 10.9%.
